The first assay relates to REH. The assay can be described thus: selective drug sensitivity score (sDSS, relative to normal bone marrow) (sDSS (score)); higher = more potent and effective on the cell line relative to normal bone marrow cells. As to conditions: 72 h.
`O=C(Nc1ccncc1)C(=O)c1cn(Cc2ccc(Cl)cc2)c2ccccc12` [Indibulin] (top concentration 10000 nM): the “selective drug sensitivity score” value is 4.14.

With `Cc1ncc(-c2ccnc(Nc3ccc(S(C)(=O)=O)cc3)n2)n1C(C)C` [AZD-5438] (top concentration 10000 nM), the “selective drug sensitivity score” value is 1.54.

For the molecule `NC[C@@](O)(c1ccc(Cl)cc1)c1ccc(-c2cn[nH]c2)cc1` (top concentration 10000 nM), the “selective drug sensitivity score” value was 2.88.

Regarding `Cn1c(Nc2ccc(C(F)(F)F)cc2)nc2cc(Oc3ccnc(-c4ncc(C(F)(F)F)[nH]4)c3)ccc21` [NVP-RAF265] (top concentration 1000 nM), the “selective drug sensitivity score” value came to 2.18.

Take `CNCc1ccc(-c2[nH]c3cc(F)cc4c3c2CCNC4=O)cc1` [Rucaparib] (top concentration 10000 nM): the “selective drug sensitivity score” value was 1.52.

Consider `O=C(CCCCCCC(=O)Nc1ccc([C@H]2O[C@@H](CSc3nc(-c4ccccc4)c(-c4ccccc4)o3)C[C@@H](c3ccc(CO)cc3)O2)cc1)NO` [Tubacin] (top concentration 10000 nM), for which the “selective drug sensitivity score” value is 7.44.

On to `N#CCNC(=O)c1ccc(-c2ccnc(Nc3ccc(N4CCOCC4)cc3)n2)cc1` [Momelotinib] (top concentration 10000 nM), for which the “selective drug sensitivity score” value was -4.82.

On to `Nc1cccc2c1CN(C1CCC(=O)NC1=O)C2=O` (stereo not given) [Lenalidomide] (top concentration 100000 nM), for which the “selective drug sensitivity score” value is -2.28.

For the molecule `CCN1CCN(Cc2ccc(Nc3ncc(F)c(-c4cc(F)c5nc(C)n(C(C)C)c5c4)n3)nc2)CC1` [Abemaciclib] (top concentration 2500 nM), the “selective drug sensitivity score” value is -0.06.

In another assay the test system is SEM cells. The assay is described as above. As to conditions: 72 h.
Turning to `CC(C)(C)c1cnc(CSc2cnc(NC(=O)C3CCNCC3)s2)o1` [SNS-032] (top concentration 10000 nM), the “selective drug sensitivity score” value is -3.24.

As for `Cn1cncc1[C@@](N)(c1ccc(Cl)cc1)c1ccc2c(c1)c(-c1cccc(Cl)c1)cc(=O)n2C` [Tipifarnib] (top concentration 10000 nM), the “selective drug sensitivity score” value worked out at 18.6.

Regarding `COc1ccccc1S(=O)(=O)Nc1ccc2c(c1)CN(C)C(=O)N2` [PFI-1] (top concentration 30000 nM), the “selective drug sensitivity score” value was determined as 4.7.

With `Cc1cn(-c2cc(NC(=O)c3ccc(C)c(Nc4nccc(-c5cnccn5)n4)c3)cc(C(F)(F)F)c2)cn1` [Radotinib] (top concentration 10000 nM), the “selective drug sensitivity score” value was determined as 0.

Take `CC[C@H](Nc1ncnc2[nH]cnc12)c1nc2cccc(F)c2c(=O)n1-c1ccccc1` [Idelalisib] (top concentration 10000 nM): the “selective drug sensitivity score” value was 3.54.

With `Cc1noc2c1-c1ccccc1C(c1ccc(Cl)cc1)=N[C@H]2CC(N)=O` [CPI-0610] (top concentration 10000 nM), the “selective drug sensitivity score” value came to 7.5.

As to `C=C(c1ccc(C(=O)O)cc1)c1cc2c(cc1C)C(C)(C)CCC2(C)C` [Bexarotene] (top concentration 10000 nM), the “selective drug sensitivity score” value turned out to be 2.9.

Consider `CC1(COc2ccc3c(c2)ncn3-c2ccc3cccc(N4CCC(N)CC4)c3n2)COC1` [Crenolanib] (top concentration 10000 nM), for which the “selective drug sensitivity score” value amounted to 13.9.

On to `O=C(Nc1cc(Oc2cc(F)c(NC(=O)C3(C(=O)Nc4ccc(F)cc4)CC3)cc2F)ccn1)C1CC1` [Altiratinib] (top concentration 10000 nM), for which the “selective drug sensitivity score” value worked out at 13.7.

For `O=C(Nc1ccncc1)C(=O)c1cn(Cc2ccc(Cl)cc2)c2ccccc12` [Indibulin] (top concentration 10000 nM), the “selective drug sensitivity score” value came to 11.9.

With `Cc1ncc(-c2ccnc(Nc3ccc(S(C)(=O)=O)cc3)n2)n1C(C)C` [AZD-5438] (top concentration 10000 nM), the “selective drug sensitivity score” value was found to be 2.34.

On to `NC[C@@](O)(c1ccc(Cl)cc1)c1ccc(-c2cn[nH]c2)cc1` (top concentration 10000 nM), for which the “selective drug sensitivity score” value was determined as 6.58.

Regarding `Cn1c(Nc2ccc(C(F)(F)F)cc2)nc2cc(Oc3ccnc(-c4ncc(C(F)(F)F)[nH]4)c3)ccc21` [NVP-RAF265] (top concentration 1000 nM), the “selective drug sensitivity score” value was found to be 4.48.

Regarding `CNCc1ccc(-c2[nH]c3cc(F)cc4c3c2CCNC4=O)cc1` [Rucaparib] (top concentration 10000 nM), the “selective drug sensitivity score” value came out at 2.72.

On to `O=C(CCCCCCC(=O)Nc1ccc([C@H]2O[C@@H](CSc3nc(-c4ccccc4)c(-c4ccccc4)o3)C[C@@H](c3ccc(CO)cc3)O2)cc1)NO` [Tubacin] (top concentration 10000 nM), for which the “selective drug sensitivity score” value is 9.44.

With `N#CCNC(=O)c1ccc(-c2ccnc(Nc3ccc(N4CCOCC4)cc3)n2)cc1` [Momelotinib] (top concentration 10000 nM), the “selective drug sensitivity score” value amounted to 1.48.

Consider `Nc1cccc2c1CN(C1CCC(=O)NC1=O)C2=O` (stereo not given) [Lenalidomide] (top concentration 100000 nM), for which the “selective drug sensitivity score” value was 3.82.

Consider `CCN1CCN(Cc2ccc(Nc3ncc(F)c(-c4cc(F)c5nc(C)n(C(C)C)c5c4)n3)nc2)CC1` [Abemaciclib] (top concentration 2500 nM), for which the “selective drug sensitivity score” value was -1.86.

The subject of a further assay is TANOUE. The description is as above. Particulars: 72 h.
For the molecule `CC(C)(C)c1cnc(CSc2cnc(NC(=O)C3CCNCC3)s2)o1` [SNS-032] (top concentration 10000 nM), the “selective drug sensitivity score” value is -14.

Consider `Cn1cncc1[C@@](N)(c1ccc(Cl)cc1)c1ccc2c(c1)c(-c1cccc(Cl)c1)cc(=O)n2C` [Tipifarnib] (top concentration 10000 nM), for which the “selective drug sensitivity score” value was -7.5.

As for `COc1ccccc1S(=O)(=O)Nc1ccc2c(c1)CN(C)C(=O)N2` [PFI-1] (top concentration 30000 nM), the “selective drug sensitivity score” value is -3.2.

As for `Cc1cn(-c2cc(NC(=O)c3ccc(C)c(Nc4nccc(-c5cnccn5)n4)c3)cc(C(F)(F)F)c2)cn1` [Radotinib] (top concentration 10000 nM), the “selective drug sensitivity score” value is 1.3.

As to `CC[C@H](Nc1ncnc2[nH]cnc12)c1nc2cccc(F)c2c(=O)n1-c1ccccc1` [Idelalisib] (top concentration 10000 nM), the “selective drug sensitivity score” value is -2.16.

In the case of `Cc1noc2c1-c1ccccc1C(c1ccc(Cl)cc1)=N[C@H]2CC(N)=O` [CPI-0610] (top concentration 10000 nM), the “selective drug sensitivity score” value is -5.8.

For `C=C(c1ccc(C(=O)O)cc1)c1cc2c(cc1C)C(C)(C)CCC2(C)C` [Bexarotene] (top concentration 10000 nM), the “selective drug sensitivity score” value was -5.3.

In the case of `CC1(COc2ccc3c(c2)ncn3-c2ccc3cccc(N4CCC(N)CC4)c3n2)COC1` [Crenolanib] (top concentration 10000 nM), the “selective drug sensitivity score” value is -9.32.

Take `O=C(Nc1cc(Oc2cc(F)c(NC(=O)C3(C(=O)Nc4ccc(F)cc4)CC3)cc2F)ccn1)C1CC1` [Altiratinib] (top concentration 10000 nM): the “selective drug sensitivity score” value was -2.56.

For the molecule `O=C(Nc1ccncc1)C(=O)c1cn(Cc2ccc(Cl)cc2)c2ccccc12` [Indibulin] (top concentration 10000 nM), the “selective drug sensitivity score” value was -2.76.

Consider `Cc1ncc(-c2ccnc(Nc3ccc(S(C)(=O)=O)cc3)n2)n1C(C)C` [AZD-5438] (top concentration 10000 nM), for which the “selective drug sensitivity score” value was -9.96.

Turning to `NC[C@@](O)(c1ccc(Cl)cc1)c1ccc(-c2cn[nH]c2)cc1` (top concentration 10000 nM), the “selective drug sensitivity score” value is -1.22.

Take `Cn1c(Nc2ccc(C(F)(F)F)cc2)nc2cc(Oc3ccnc(-c4ncc(C(F)(F)F)[nH]4)c3)ccc21` [NVP-RAF265] (top concentration 1000 nM): the “selective drug sensitivity score” value turned out to be 0.68.

Turning to `CNCc1ccc(-c2[nH]c3cc(F)cc4c3c2CCNC4=O)cc1` [Rucaparib] (top concentration 10000 nM), the “selective drug sensitivity score” value was -0.58.

On to `O=C(CCCCCCC(=O)Nc1ccc([C@H]2O[C@@H](CSc3nc(-c4ccccc4)c(-c4ccccc4)o3)C[C@@H](c3ccc(CO)cc3)O2)cc1)NO` [Tubacin] (top concentration 10000 nM), for which the “selective drug sensitivity score” value was 2.74.

For the molecule `N#CCNC(=O)c1ccc(-c2ccnc(Nc3ccc(N4CCOCC4)cc3)n2)cc1` [Momelotinib] (top concentration 10000 nM), the “selective drug sensitivity score” value was -9.62.

In the case of `Nc1cccc2c1CN(C1CCC(=O)NC1=O)C2=O` (stereo not given) [Lenalidomide] (top concentration 100000 nM), the “selective drug sensitivity score” value was -2.28.

Consider `CCN1CCN(Cc2ccc(Nc3ncc(F)c(-c4cc(F)c5nc(C)n(C(C)C)c5c4)n3)nc2)CC1` [Abemaciclib] (top concentration 2500 nM), for which the “selective drug sensitivity score” value is -9.66.

These data come from the supplement of paper PMC8967900.
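Further: ALL cell lines in 384-well plates, five doses spanning 10,000-fold, each plate scaled between vehicle and 100 µmol/L benzalkonium chloride controls, sDSS an adapted area-under-curve metric.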
